Results taken from publication PMC6597546, “Identification of a potent benzoxaborole drug candidate for treating cryptosporidiosis” (Nature Communications, 2019).
In brackets after ≈: the same amount, converted by molar mass. Several values for one entry are separate records, joined by “and”; a condition that tells them apart may be missing. Equal entries are not always repeated. Entries after “also recorded” stand apart in the source; their conditions may differ.

Key:
[1] = test system: C. parvum (Bunch Grass Farms Iowa isolate); experiment: NOD scid gamma (NSG) mouse model of established C. parvum infection; format: in vivo, NOD scid gamma mice; conditions: for reduction of parasite shedding: after 4 days of treatment
Protocol: NOD scid gamma mice (NOD.Cg-Prkdcscid Il2rgtm1Wjl/SzJ)[55] (NSG) were used to model chronic Cryptosporidium infection. All NSG mouse studies were performed in compliance with animal care guidelines and with approval by the University of Vermont Institutional Animal Care and Use Committee. NSG mice with normal flora were purchased from The Jackson Laboratory (Bar Harbor, ME) and were housed for at least a week for acclimatization. […] Fecal parasite shedding was measured using a quantitative PCR (qPCR) assay, and the primers named above as Cp18s forward and Cp18s reverse.

[2] = test system: 109 off-target enzymes and receptors; experiment: Lead Profiling and Adverse Reaction Enzyme off-target panel; format: binding; conditions: 10 µM
Protocol: (§1) In vitro safety profiling studies were conducted by Ricerca Biosciences (Taipei, Taiwan) and WuXi AppTec (Suzhou, China). Ricerca performed a Lead Profiling and Adverse Reaction Enzyme panel of 109 off-target enzymes and receptors. This included the hERG K+ ion channel, which is associated with cardiac tachyarrhythmias, and used a radioligand binding competition format with 10 µM test compound for 1 h at 25 °C. For the enzyme and receptor panel, competitive inhibition at 10 µM of test compound was the most common assay format. The AMES bacterial reverse mutation assay detects point mutations in Escherichia coli and Salmonella typhimurium as an indicator of mutagenic activity. Bacterial strains were obtained from Molecular Toxicology (Boone, NC).

[3] = Solubility PBS pH 7.4; format: physicochemical; conditions: aqueous buffer
[4] = Liver microsome Clint (mouse); format: in vitro ADME; conditions: liver microsomes
[5] = test system: Escherichia coli and Salmonella typhimurium; experiment: AMES bacterial reverse mutation assay; conditions: five strains with and without S9, up to 5000 µg per plate
Protocol: as §1

Which results are given for `CC1(C)OB(O)c2cc(NC(=O)c3ccc(-n4cccn4)cc3Cl)ccc21` [AN7973]?
reduction of parasite shedding ([1]; 10 mg per kg once daily oral gavage): > 90%; parasite fecal shedding (qPCR), individual mice ([1]; 10 mg/kg, D7 (before treatment)): 58.681 oocysts/mg feces and 43.169 oocysts/mg feces and 158.993 oocysts/mg feces and 120.558 oocysts/mg feces; parasite fecal shedding (qPCR), individual mice ([1]; 10 mg/kg, D11): 7.142 oocysts/mg feces and 1.830 oocysts/mg feces and 16.882 oocysts/mg feces and 7.589 oocysts/mg feces; reduction of parasite shedding ([1]; 25 mg per kg once daily oral gavage): > 99%; parasite fecal shedding (qPCR), individual mice ([1]; 25 mg/kg, D7 (before treatment)): 379.464 oocysts/mg feces and 632.650 oocysts/mg feces and 267.595 oocysts/mg feces and 299.397 oocysts/mg feces; parasite fecal shedding (qPCR), individual mice ([1]; 25 mg/kg, D11, ND = not detected, lower limit of detection 0.1): 0.825 oocysts/mg feces; adverse effects in NSG mice ([1]; treated NSG mice gained weight normally): no adverse effects were observed; In vitro Receptor Panel (109 targets) [2]: Negative; also recorded: no significant findings; solubility [3]: 126 µM (≈ 48.1 µg/mL); microsomal CLint [4]: < 1 µL/min/mg; Ames test for mutagenic potential [5]: negative
